Data taken from patent US10336761B2, “TGFβ receptor antagonist” (BRISTOL-MYERS SQUIBB COMPANY, priority 2015, dated 2019).

Target: HIS-TGFβR1 T204D (Homo sapiens (Human), UniProt P36897, T204D)
Assay: HTRF probe-displacement assay, HIS-TGFβR1 T204D
Assay type: binding
Details: 1 hour at room temperature

HIS-TGFβR1 T204D, sequence (P36897 34-503 T204D): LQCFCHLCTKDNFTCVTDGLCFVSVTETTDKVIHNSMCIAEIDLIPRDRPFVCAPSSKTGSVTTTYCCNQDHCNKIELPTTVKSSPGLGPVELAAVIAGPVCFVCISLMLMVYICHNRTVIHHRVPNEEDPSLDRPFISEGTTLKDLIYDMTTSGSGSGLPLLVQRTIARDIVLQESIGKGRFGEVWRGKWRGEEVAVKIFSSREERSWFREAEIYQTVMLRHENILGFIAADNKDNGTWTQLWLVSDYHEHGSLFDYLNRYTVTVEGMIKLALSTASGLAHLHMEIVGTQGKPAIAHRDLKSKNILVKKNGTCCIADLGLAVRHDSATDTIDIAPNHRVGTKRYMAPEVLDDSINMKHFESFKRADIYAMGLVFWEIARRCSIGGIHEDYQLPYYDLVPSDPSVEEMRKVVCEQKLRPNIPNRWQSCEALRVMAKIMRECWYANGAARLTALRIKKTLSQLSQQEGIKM

SMILES | IC50
COc1cccc(-c2nc(Nc3ccncc3F)c3c(CNCCN4CCCC4)ccn3n2)n1 [Example 119, 3-fluoro-N-[2-(6-methoxypyridin-2-yl)-5-({[2-(pyrrolidin-1-yl)ethyl]amino}methyl)pyrrolo[2,1-f][1,2,4]triazin-4-yl]pyridin-4-amine] | 63 nM
O=C(NC1CCOCC1)c1cnccc1Nc1nc(-c2cccc(C(F)F)n2)nn2cccc12 [Example 178, 4-({2-[6-(difluoromethyl)pyridin-2-yl]pyrrolo[2,1-f][1,2,4]triazin-4-yl}amino)-N-(oxan-4-yl)pyridine-3-carboxamide] | 220 nM
COc1cccc(-c2nc(Nc3ccnc(F)c3)c3cccn3n2)n1 [Example 94, 2-fluoro-N-[2-(6-methoxypyridin-2-yl)pyrrolo[2,1-f][1,2,4]triazin-4-yl]pyridin-4-amine] | 630 nM
Fc1cnccc1Nc1nc(-c2ccccn2)nn2ccc(CNc3cc(-c4ccccc4)[nH]n3)c12 [Example 298, 3-fluoro-N-(5-{[(5-phenyl-1H-pyrazol-3-yl)amino]methyl}-2-(pyridin-2-yl)pyrrolo[2,1-f][1,2,4]triazin-4-yl)pyridin-4-amine] | 27 nM
Fc1cnccc1Nc1nc(-c2ncccc2F)nn2cccc12 [Example 260, 3-fluoro-N-[2-(3-fluoropyridin-2-yl)pyrrolo[2,1-f][1,2,4]triazin-4-yl]pyridin-4-amine] | 3.2 nM
CC(C)(NCc1ccn2nc(-c3ccccn3)nc(Nc3ccncc3F)c12)c1ccccn1 [Example 301, 3-fluoro-N-[2-(pyridin-2-yl)-5-({[2-(pyridin-2-yl)propan-2-yl]amino}methyl)pyrrolo[2,1-f][1,2,4]triazin-4-yl]pyridin-4-amine] | 0.58 nM
Fc1cnccc1Nc1nc(-c2ccccn2)nn2ccc(CNCC3CCC3)c12 [Example 271, N-(5-{[(cyclobutylmethyl)amino]methyl}-2-(pyridin-2-yl)pyrrolo[2,1-f][1,2,4]triazin-4-yl)-3-fluoropyridin-4-amine] | 1.2 nM
COc1cccc(-c2nc(NCc3ccncc3)c3cccn3n2)n1 [Example 31, 2-(6-methoxypyridin-2-yl)-N-(pyridin-4-ylmethyl)pyrrolo[2,1-f][1,2,4]triazin-4-amine] | 810 nM
NC(=O)c1cnccc1Nc1nc(-c2ccc(F)c(C(F)F)n2)nn2cccc12 [Example 224, 4-({2-[6-(difluoromethyl)-5-fluoropyridin-2-yl]pyrrolo[2,1-f][1,2,4]triazin-4-yl}amino)pyridine-3-carboxamide] | 1.4 nM
COc1cccc(-c2nc(Nc3ccnc(Cl)c3)c3cccn3n2)n1 [Example 93, 2-chloro-N-[2-(6-methoxypyridin-2-yl)pyrrolo[2,1-f][1,2,4]triazin-4-yl]pyridin-4-amine] | 6600 nM

Now from value to compound:

IC50 | SMILES
0.49 nM | Cc1cccc(-c2nc(Nc3ccncc3F)c3c(CN4CC[C@H](O)C4)ccn3n2)n1 [Example 252, (3S)-1-({4-[(3-fluoropyridin-4-yl)amino]-2-(6-methylpyridin-2-yl)pyrrolo[2,1-f][1,2,4]triazin-5-yl}methyl)pyrrolidin-3-ol]
1.9 nM | Cc1nc(-c2nc(Nc3ccncc3)c3cccn3n2)ccc1F [Example 69, N-[2-(5-fluoro-6-methylpyridin-2-yl)pyrrolo[2,1-f][1,2,4]triazin-4-yl]pyridin-4-amine]
100 nM | FC(F)(F)c1cccc(-c2nc(Nc3ccnc(-c4cc[nH]n4)c3)c3cccn3n2)n1 [Example 230, 2-(1H-pyrazol-3-yl)-N-{2-[6-(trifluoromethyl)pyridin-2-yl]pyrrolo[2,1-f][1,2,4]triazin-4-yl}pyridin-4-amine]
2.6 nM | O=C(CN1CCOCC1)Nc1cc(Nc2nc(-c3cccc(C(F)(F)F)n3)nn3cccc23)ccn1 [Example 331, 2-(morpholin-4-yl)-N-[4-({2-[6-(trifluoromethyl)pyridin-2-yl]pyrrolo[2,1-f][1,2,4]triazin-4-yl}amino)pyridin-2-yl]acetamide]
0.25 nM | CC(=O)Nc1cc(Nc2nc(-c3ccccn3)nn3ccc(CN4CCOCC4)c23)ccn1 [Example 293, N-(4-{[5-(morpholin-4-ylmethyl)-2-(pyridin-2-yl)pyrrolo[2,1-f][1,2,4]triazin-4-yl]amino}pyridin-2-yl)acetamide]
44 nM | O=C(NCc1nccs1)c1cnccc1Nc1nc(-c2cccc(C(F)F)n2)nn2cccc12 [Example 183, 4-({2-[6-(difluoromethyl)pyridin-2-yl]pyrrolo[2,1-f][1,2,4]triazin-4-yl}amino)-N-(1,3-thiazol-2-ylmethyl)pyridine-3-carboxamide]
5.3 nM | Cc1cccc(-c2nc(Nc3ccncc3C(=O)NCCN3CCCC3)c3cccn3n2)n1 [Example 152, 4-{[2-(6-methylpyridin-2-yl)pyrrolo[2,1-f][1,2,4]triazin-4-yl]amino}-N-[2-(pyrrolidin-1-yl)ethyl]pyridine-3-carboxamide]
0.8 nM | Cc1csc(-c2nc(Nc3ccncc3F)c3cccn3n2)n1 [Example 12, 3-fluoro-N-[2-(4-methyl-1,3-thiazol-2-yl)pyrrolo[2,1-f][1,2,4]triazin-4-yl]pyridin-4-amine]
12 nM | CN1CCC(N(C)Cc2ccn3nc(-c4ccccn4)nc(Nc4ccncc4F)c23)CC1 [Example 279, 3-fluoro-N-(5-{[methyl(1-methylpiperidin-4-yl)amino]methyl}-2-(pyridin-2-yl)pyrrolo[2,1-f][1,2,4]triazin-4-yl)pyridin-4-amine]
230 nM | COc1cccc(-c2nc(Nc3ccncc3F)c3cc(CN4CCC(F)(F)CC4)cn3n2)n1 [Example 40, N-{6-[(4,4-difluoropiperidin-1-yl)methyl]-2-(6-methoxypyridin-2-yl)pyrrolo[2,1-f][1,2,4]triazin-4-yl}-3-fluoropyridin-4-amine]
38 nM | COc1cccc(-c2nc(Nc3ccncc3F)c3c(C(O)CN4CCC(F)(F)CC4)ccn3n2)n1 (stereo not shown) [Example 129, 2-(4,4-difluoropiperidin-1-yl)-1-{4-[(3-fluoropyridin-4-yl)amino]-2-(6-methoxypyridin-2-yl)pyrrolo[2,1-f][1,2,4]triazin-5-yl}ethan-1-ol]
22 nM | Cc1cccc(-c2nc(Nc3ccncc3C(=O)NCCN3CCS(=O)(=O)CC3)c3cccn3n2)n1 [Example 153, N-[2-(1,1-dioxo-1,4-thiomorpholin-4-yl)ethyl]-4-{[2-(6-methylpyridin-2-yl)pyrrolo[2,1-f][1,2,4]triazin-4-yl]amino}pyridine-3-carboxamide]
30 nM | C=Cc1cc2c(Nc3ccncc3F)nc(-c3cccc(OC)n3)nn2c1 [Example 210, N-[6-ethenyl-2-(6-methoxypyridin-2-yl)pyrrolo[2,1-f][1,2,4]triazin-4-yl]-3-fluoropyridin-4-amine]
3.3 nM | O=C(CCC(F)(F)F)Nc1cc(Nc2nc(-c3cccc(C(F)(F)F)n3)nn3cccc23)ccn1 [Example 337, 4,4,4-trifluoro-N-[4-({2-[6-(trifluoromethyl)pyridin-2-yl]pyrrolo[2,1-f][1,2,4]triazin-4-yl}amino)pyridin-2-yl]butanamide]
4.8 nM | Cc1cccc(-c2nc(Nc3ccncc3C(=O)NCCCO)c3cccn3n2)n1 [Example 159, N-(3-hydroxypropyl)-4-{[2-(6-methylpyridin-2-yl)pyrrolo[2,1-f][1,2,4]triazin-4-yl]amino}pyridine-3-carboxamide]
